Results as given in US12559505B2, “IDH mutant inhibitor and use thereof” (WIGEN BIOMEDICINE TECHNOLOGY (SHANGHAI) CO., LTD., priority 2020, dated 2026).

Molecular target: T1, IDH R132C (Homo sapiens, UniProt O75874, R132C)
T1 construct: expressed in transfected cells; host or cells: U87 cells
Experiment: Detection of 2-HG in supernatant of U87-IDH R132C cells
Format: cell-based
Conditions: 72 h, LC-MS-MS, vs control; for Inhibition rate of compounds on 2-HG in the supernatant of U87-IDH R132C cells, 1 nM / inhibition at 0.001 µM: 1 nM compound; for Inhibition rate of compounds on 2-HG in the supernatant of U87-IDH R132C cells, 10 nM / inhibition at 0.01 µM: 10 nM compound; for Inhibition rate of compounds on 2-HG in the supernatant of U87-IDH R132C cells, 100 nM / inhibition at 0.1 µM: 100 nM compound; for inhibition at 0.001 µM: read-out: Inhibition rate of compounds on 2-HG in the supernatant of U87-IDH R132C cells, 1 nM; for inhibition at 0.01 µM: read-out: Inhibition rate of compounds on 2-HG in the supernatant of U87-IDH R132C cells, 10 nM; for inhibition at 0.1 µM: read-out: Inhibition rate of compounds on 2-HG in the supernatant of U87-IDH R132C cells, 100 nM
Description: U87 cells overexpressing the IDH R132C mutation were seeded in a 48-well plate at 50,000 cells/well. After the cells were incubated overnight for adhesion, the supernatant was removed. The cell culture media containing serially diluted compounds were added, and the cells were incubated for 72 h. After 72 h, the cultures were collected and diluted 10-fold with water, and acetonitrile was added to extract the metabolites. The 2-HG content in the cultures was analyzed by LC-MS-MS, and the percentage inhibition of compounds on 2-HG in the supernatant was calculated as compared with the control.

T1 sequence (O75874 whole entry R132C): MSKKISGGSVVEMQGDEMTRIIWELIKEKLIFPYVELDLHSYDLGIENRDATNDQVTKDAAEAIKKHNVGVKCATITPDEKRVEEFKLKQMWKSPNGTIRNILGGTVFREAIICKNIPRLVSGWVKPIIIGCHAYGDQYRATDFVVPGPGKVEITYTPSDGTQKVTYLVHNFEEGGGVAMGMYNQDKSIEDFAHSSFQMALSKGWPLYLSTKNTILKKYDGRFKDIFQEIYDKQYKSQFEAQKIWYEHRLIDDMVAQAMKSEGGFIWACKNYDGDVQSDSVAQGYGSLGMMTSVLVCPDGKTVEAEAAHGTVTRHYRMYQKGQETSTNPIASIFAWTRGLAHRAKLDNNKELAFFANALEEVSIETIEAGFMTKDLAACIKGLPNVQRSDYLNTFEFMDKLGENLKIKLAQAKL

inhibition at 0.001 µM	inhibition at 0.01 µM	inhibition at 0.1 µM	Compound	Inhibition rate of compounds on 2-HG in the supernatant of U87-IDH R132C cells, 1 nM	Inhibition rate of compounds on 2-HG in the supernatant of U87-IDH R132C cells, 10 nM	Inhibition rate of compounds on 2-HG in the supernatant of U87-IDH R132C cells, 100 nM
			C=CC(=O)N1CC2(CC([C@@H](CC3CCC3)c3ccc([C@H](C)Nc4ncc5c(n4)N(CC)C(=O)OC5)cc3)C2)C1 [Compound 1-1]	C (C represents an inhibition rate greater than 30% but less than or equal to 60%)	A (A represents an inhibition rate greater than 90%)	A (A represents an inhibition rate greater than 90%)
30 to 60%	> 90%	> 90%	C=CC(=O)NC1CCN(C(CC2CC2)c2ccc([C@H](C)Nc3ncc4c(n3)N(CC)C(=O)OC4)cc2)CC1 (stereo partly drawn) [Compound 11]			
30 to 60%	> 90%	> 90%	C=CC(=O)NC1CN(C(CC2CC2)c2ccc([C@H](C)Nc3ncc4c(n3)N(CC)C(=O)OC4)cc2)C1 (stereo partly drawn) [Compound 14]			
30 to 60%	60 to 90%	> 90%	C=CC(=O)N(C)C1CCN(C(CC2CC2)c2ccc([C@H](C)Nc3ncc4c(n3)N(CC)C(=O)OC4)cc2)CC1 (stereo partly drawn) [Compound 16]			
30 to 60%	> 90%	> 90%	C=CC(=O)N(C)C1CN(C(CC2CC2)c2ccc([C@H](C)Nc3ncc4c(n3)N(CC)C(=O)OC4)cc2)C1 (stereo partly drawn) [Compound 19]			
< 30%	60 to 90%	> 90%	C=CC(=O)NC1CCN(C(CC2CC2)c2ccc([C@H](C)Nc3ncc4c(n3)N(C(C)C)C(=O)OC4)cc2)CC1 (stereo partly drawn) [Compound 22]			
30 to 60%	60 to 90%	> 90%	C=CC(=O)NC1CN(C(CC2CC2)c2ccc([C@H](C)Nc3ncc4c(n3)N(C(C)C)C(=O)OC4)cc2)C1 (stereo partly drawn) [Compound 23]			
30 to 60%	> 90%	> 90%	C=CC(=O)N(C)C1CCN(C(CC2CC2)c2ccc([C@H](C)Nc3ncc4c(n3)N(C(C)C)C(=O)OC4)cc2)CC1 (stereo partly drawn) [Compound 24]			
30 to 60%	> 90%	> 90%	C=CC(=O)N(C)C1CN(C(CC2CC2)c2ccc([C@H](C)Nc3ncc4c(n3)N(C(C)C)C(=O)OC4)cc2)C1 (stereo partly drawn) [Compound 25]			
30 to 60%	60 to 90%	> 90%	C=CC(=O)N1CC2(C1)CN(C(CC1CC1)c1ccc(C3(Nc4ncc5c(n4)N(CC)C(=O)OC5)CC3)cc1)C2 (stereo not drawn) [Compound 26]			
30 to 60%	60 to 90%	> 90%	C=CC(=O)NC1CCN(C(CC2CC2)c2ccc(C3(Nc4ncc5c(n4)N(CC)C(=O)OC5)CC3)cc2)CC1 (stereo not drawn) [Compound 27]			
< 30%	60 to 90%	> 90%	C=CC(=O)NC1CN(C(CC2CC2)c2ccc(C3(Nc4ncc5c(n4)N(CC)C(=O)OC5)CC3)cc2)C1 (stereo not drawn) [Compound 28]			
< 30%	60 to 90%	> 90%	C=CC(=O)N(C)C1CCN(C(CC2CC2)c2ccc(C3(Nc4ncc5c(n4)N(CC)C(=O)OC5)CC3)cc2)CC1 (stereo not drawn) [Compound 29]			
30 to 60%	60 to 90%	> 90%	C=CC(=O)N(C)C1CN(C(CC2CC2)c2ccc(C3(Nc4ncc5c(n4)N(CC)C(=O)OC5)CC3)cc2)C1 (stereo not drawn) [Compound 30]			
< 30%	60 to 90%	> 90%	C=CC(=O)N1CC2(C1)CN(C(CC1CC1)c1ccc(C3(Nc4ncc5c(n4)N(C(C)C)C(=O)OC5)CC3)cc1)C2 (stereo not drawn) [Compound 31]			
30 to 60%	30 to 60%	> 90%	C=CC(=O)NC1CCN(C(CC2CC2)c2ccc(C3(Nc4ncc5c(n4)N(C(C)C)C(=O)OC5)CC3)cc2)CC1 (stereo not drawn) [Compound 32]			
60 to 90%	> 90%	> 90%	C=CC(=O)N1CC2(C1)CN([C@@H](CC)c1ccc([C@H](C)Nc3ncc4c(n3)N(CC)C(=O)OC4)cc1)C2 [Compound 36-1]			
			C=CC(=O)N1CC2(CC([C@H](CC)c3ccc(CNc4ncc5c(n4)N(CC)C(=O)OC5)cc3)C2)C1 [Compound 36-2]	B (B represents an inhibition rate greater than 60% but less than or equal to 90%)	B (B represents an inhibition rate greater than 60% but less than or equal to 90%)	A (A represents an inhibition rate greater than 90%)
60 to 90%	> 90%	> 90%	C=CC(=O)N1CC2(C1)CN(C(CC)c1ccc([C@H](C)Nc3ncc4c(n3)N(CC)C(=O)OC4)cc1)C2 (stereo partly drawn) [Compound 36]			

inhibition at 0.001 µM	inhibition at 0.01 µM	inhibition at 0.1 µM	Compound	Inhibition rate of compounds on 2-HG in the supernatant of U87-IDH R132C cells, 1 nM	Inhibition rate of compounds on 2-HG in the supernatant of U87-IDH R132C cells, 10 nM	Inhibition rate of compounds on 2-HG in the supernatant of U87-IDH R132C cells, 100 nM
30 to 60%	> 90%	> 90%	C=CC(=O)N1CC2(C1)CN(C(CC(C)C)c1ccc([C@H](C)Nc3ncc4c(n3)N(CC)C(=O)OC4)cc1)C2 (stereo partly drawn) [Compound 41]			
60 to 90%	> 90%	> 90%	C=CC(=O)N1CC2(C1)CN(C(CC)c1ccc([C@H](C)Nc3ncc4c(n3)N(C(C)C)C(=O)OC4)cc1)C2 (stereo partly drawn) [Compound 46]			
60 to 90%	> 90%	> 90%	C=CC(=O)N1CC2(C1)CN(C(CC(C)C)c1ccc([C@H](C)Nc3ncc4c(n3)N(C(C)C)C(=O)OC4)cc1)C2 (stereo partly drawn) [Compound 47]			
30 to 60%	60 to 90%	> 90%	C=CC(=O)N1CC2(C1)CN(C(CC1CC1)c1ccc([C@H](C)Nc3ncc4c(n3)N(CCC)C(=O)OC4)cc1)C2 (stereo partly drawn) [Compound 53]			
60 to 90%	60 to 90%	> 90%	C=CC(=O)N1CC2(C1)CN(C(CC1CC1)c1ccc([C@H](C)Nc3ncc4c(n3)N(CC(C)C)C(=O)OC4)cc1)C2 (stereo partly drawn) [Compound 54]			
30 to 60%	60 to 90%	> 90%	C=CC(=O)N1CC2(C1)CN(C(CC(C)(C)C)c1ccc([C@H](C)Nc3ncc4c(n3)N(CC)C(=O)OC4)cc1)C2 (stereo partly drawn) [Compound 59]			
30 to 60%	> 90%	> 90%	C=CC(=O)N1CC2(C1)CN(C(CC1CCC1)c1ccc([C@H](C)Nc3ncc4c(n3)N(CC)C(=O)OC4)cc1)C2 (stereo partly drawn) [Compound 63]			
30 to 60%	> 90%	> 90%	C=CC(=O)N1CC2(C1)CN(C(CC1(C)CC1)c1ccc([C@H](C)Nc3ncc4c(n3)N(CC)C(=O)OC4)cc1)C2 (stereo partly drawn) [Compound 65]			
60 to 90%	> 90%	> 90%	C=CC(=O)N1CC2(C1)CN([C@@H](CC13CC(C1)C3)c1ccc([C@H](C)Nc3ncc4c(n3)N(CC)C(=O)OC4)cc1)C2 [Compound 66-1]			
30 to 60%	60 to 90%	> 90%	C=CC(=O)N1CC2(C1)CN([C@H](CC13CC(C1)C3)c1ccc([C@H](C)Nc3ncc4c(n3)N(CC)C(=O)OC4)cc1)C2 [Compound 66-2]			
60 to 90%	> 90%	> 90%	C=CC(=O)N1CC2(C1)CN(C(CC13CC(C1)C3)c1ccc([C@H](C)Nc3ncc4c(n3)N(CC)C(=O)OC4)cc1)C2 (stereo partly drawn) [Compound 66]			
30 to 60%	> 90%	> 90%	C=CC(=O)N1CCN(C(CC2(C)CC2)c2ccc([C@H](C)Nc3ncc4c(n3)N(CC)C(=O)NC4)cc2)CC1 (stereo partly drawn) [Compound 69]			
60 to 90%	> 90%	> 90%	C=CC(=O)N1CCN([C@@H](CC23CC(C2)C3)c2ccc([C@H](C)Nc3ncc4c(n3)N(CC)C(=O)NC4)cc2)CC1 [Compound 70-1]			
60 to 90%	60 to 90%	> 90%	C=CC(=O)N1CCN([C@H](CC23CC(C2)C3)c2ccc([C@H](C)Nc3ncc4c(n3)N(CC)C(=O)NC4)cc2)CC1 [Compound 70-2]			
30 to 60%	> 90%	> 90%	C=CC(=O)N1CC2(C1)CN(C(CC1(C)CC1)c1ccc([C@H](C)Nc3ncc4c(n3)N(CC)C(=O)NC4)cc1)C2 (stereo partly drawn) [Compound 71]			
60 to 90%	> 90%	> 90%	C=CC(=O)N1CC2(C1)CN([C@@H](CC13CC(C1)C3)c1ccc([C@H](C)Nc3ncc4c(n3)N(CC)C(=O)NC4)cc1)C2 [Compound 72-1]			
30 to 60%	60 to 90%	> 90%	C=CC(=O)N1CC2(C1)CN([C@H](CC13CC(C1)C3)c1ccc([C@H](C)Nc3ncc4c(n3)N(CC)C(=O)NC4)cc1)C2 [Compound 72-2]			
60 to 90%	> 90%	> 90%	C=CC(=O)N1CC2(C1)CN(C(CC13CC(C1)C3)c1ccc([C@H](C)Nc3ncc4c(n3)N(CC)C(=O)NC4)cc1)C2 (stereo partly drawn) [Compound 72]			
30 to 60%	60 to 90%	> 90%	C=CC(=O)N1CCN(C(CC)c2ccc([C@H](C)Nc3ncc4c(n3)N(C(C)C)C(=O)NC4)cc2)CC1 (stereo partly drawn) [Compound 80]			
